Where a name gives a salt, the structure may show the parent alone.
System: Acinetobacter baumannii ATCC17961
Test: Antimicrobial susceptibility testing: 90% growth inhibitory concentration (IC90) determination in Iso-Sensitest broth, OD600 growth
Type: cell-based
Conditions: Acinetobacter baumannii, ATCC17961, 16 h, read-out: A. baumannii ATCC 17961 IC90 (uM), strain ATCC 17961, OD600 growth over 16 h
Method in brief: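 OD600 read every 20 min for 16 h at 35±2° C; inhibition taken in log phase to derive IC90. Twofold, 10-point dilutions (e.g. 50–0.097 μM final), inoculum ~5×10^(5) CFU/ml.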

Compound	IC90 [µM]
CCc1cc(Nc2nccn3c(-c4cn(CC5CC5(F)F)nc4C(F)(F)F)cnc23)ccc1C(=O)NCCOCCN (stereo not shown) [Example 277, N-[2-(2-aminoethoxy)ethyl]-4-[[3-[1-[(2,2-difluorocyclopropyl)methyl]-3-(trifluoromethyl)pyrazol-4-yl]imidazo[1,2-a]pyrazin-8-yl]amino]-2-ethylbenzamide formate]	0.186
CCc1cc(Nc2nccn3c(-c4cn(C(C)C#N)nc4C(F)(F)F)cnc23)ccc1C(=O)NCCOCCN1CCCC1 (stereo not shown) [Example 645, 4-((3-(1-(1-cyanoethyl)-3-(trifluoromethyl)-1H-pyrazol-4-yl)imidazo[1,2-a]pyrazin-8-yl)amino)-2-ethyl-N-(2-(2-(pyrrolidin-1-yl)ethoxy)ethyl)benzamide formate]	0.242
CCc1cc(Nc2nccn3c(-c4cn(CCC(C)C)nc4C(F)(F)F)cnc23)ccc1C(=O)NCCOCCN [Example 28, N-[2-(2-aminoethoxy)ethyl]-2-ethyl-4-[[3-[1-(3-methylbutyl)-3-(trifluoromethyl)pyrazol-4-yl]imidazo[1,2-a]pyrazin-8-yl]amino]benzamide formate]	0.369
CCc1cc(Nc2nccn3c(-c4cn(CC#N)nc4C(F)(F)F)cnc23)ccc1C(=O)NCCNC(=O)CCCN [Example 540, N-(2-(4-aminobutanamido)ethyl)-4-((3-(1-(cyanomethyl)-3-(trifluoromethyl)-1H-pyrazol-4-yl)imidazo[1,2-a]pyrazin-8-yl)amino)-2-ethylbenzamide formate]	0.249
Cn1ccc(Cn2cc(-c3cnc4c(Nc5ccc(C(=O)N6CCNCC6)c(Cl)c5)nccn34)c(C(F)(F)F)n2)n1 [Example 183, [2-chloro-4-[[3-[1-[(1-methylpyrazol-3-yl)methyl]-3-(trifluoromethyl)pyrazol-4-yl]imidazo[1,2-a]pyrazin-8-yl]amino]phenyl]-piperazin-1-ylmethanone formate]	0.372
Cc1cc(Nc2nccn3c(-c4cn(CC#N)nc4C(F)(F)F)cnc23)ccc1C(=O)NCCCNC(=O)[C@@H]1C[C@@H](O)CN1 [Example 367, (2S,4R)-N-[3-[[4-[[3-[1-(cyanomethyl)-3-(trifluoromethyl)pyrazol-4-yl]imidazo[1,2-a]pyrazin-8-yl]amino]-2-methylbenzoyl]amino]propyl]-4-hydroxypyrrolidine-2-carboxamide formate]	0.468
Cc1cc(Nc2nccn3c(-c4c[nH]nc4C(F)(F)F)cnc23)ccc1C(=O)NCCNC(=O)[C@@H]1C[C@@H](O)CN1 [Example 444, formic acid; (2S,4R)-4-hydroxy-N-[2-[[2-methyl-4-[[3-[3-(trifluoromethyl)-1H-pyrazol-4-yl]imidazo[1,2-a]pyrazin-8-yl]amino]benzoyl]amino]ethyl]pyrrolidine-2-carboxamide]	1.43
O=C(c1ccc(Nc2nccn3c(-c4c[nH]nc4C(F)(F)F)cnc23)cc1Cl)N1CCN(C(=O)[C@H]2CCNC[C@@H]2O)CC1 [Example 453, [2-chloro-4-[[3-[3-(trifluoromethyl)-1H-pyrazol-4-yl]imidazo[1,2-a]pyrazin-8-yl]amino]phenyl]-[4-[(3R,4S)-3-hydroxypiperidine-4-carbonyl]piperazin-1-yl]methanone formate]	0.586

Same assay, conditions: Acinetobacter baumannii, ATCC17961, 16 h, strain ATCC 17961, OD600 growth over 16 h, read-out: A. baumannii ATCC 17961 IC90

Compound	IC90 [µM]
C#CCn1cc(-c2cnc3c(Nc4ccc(C(=O)NCCOCCN)c(C)c4)nccn23)c(C(F)(F)F)n1 [Example 16, N-[2-(2-aminoethoxy)ethyl]-2-methyl-4-[[3-[1-prop-2-ynyl-3-(trifluoromethyl)pyrazol-4-yl]imidazo[1,2-a]pyrazin-8-yl]amino]benzamide]	0.069
C#CCn1cc(-c2cnc3c(Nc4ccc(C(=O)N[C@H](C)CN)c(CC)c4)nccn23)c(C(F)(F)F)n1 [Example 106, N-[(2R)-1-aminopropan-2-yl]-2-ethyl-4-[[3-[1-prop-2-ynyl-3-(trifluoromethyl)pyrazol-4-yl]imidazo[1,2-a]pyrazin-8-yl]amino]benzamide]	0.222
Cc1cc(Nc2nccn3c(-c4cn(CC#N)nc4C(F)(F)F)cnc23)cc(F)c1C(=O)N[C@H](C)CNC(=O)[C@H]1[C@@H]2CNC[C@@H]21 [Example 720, (1R,5S,6r)-N-((R)-2-(4-((3-(1-(cyanomethyl)-3-(trifluoromethyl)-1H-pyrazol-4-yl)imidazo[1,2-a]pyrazin-8-yl)amino)-2-fluoro-6-methylbenzamido)propyl)-3-azabicyclo[3.1.0] hexane-6-carboxamide formate]	0.441
C#CCNC(=O)c1c(C)cc(Nc2nccn3c(-c4cn(CC(F)F)nc4C(F)(F)F)cnc23)cc1F [Example 37, 4-[[3-[1-(2,2-difluoroethyl)-3-(trifluoromethyl)pyrazol-4-yl]imidazo[1,2-a]pyrazin-8-yl]amino]-2-fluoro-6-methyl-N-prop-2-ynylbenzamide]	0.239

The next lines start with the values.

IC90 [µM]	Compound
0.233	Cc1cc(Nc2nccn3c(-c4cn(CC#N)nc4C(F)(F)F)cnc23)ccc1C(=O)NCC(=O)N1CCC(N)CC1 [Example 503, N-[2-(4-amino-1-piperidyl)-2-oxo-ethyl]-4-[[3-[1-(cyanomethyl)-3-(trifluoromethyl)pyrazol-4-yl]imidazo[1,2-a]pyrazin-8-yl]amino]-2-methyl-benzamide formate]
0.315	C[C@@H](NC(=O)c1ccc(Nc2nccn3c(-c4cn(CC#N)nc4C(F)(F)F)cnc23)cc1Cl)C(=O)N1CC[C@@H](N)C1 [Example 674, N-[(1R)-2-[(3R)-3-aminopyrrolidin-1-yl]-1-methyl-2-oxo-ethyl]-2-chloro-4-[[3-[1-(cyanomethyl)-3-(trifluoromethyl)pyrazol-4-yl]imidazo[1,2-a]pyrazin-8-yl]amino] benzamide formate]
0.391	O=C(NC1CCN(C(=O)c2ccc(Nc3nccn4c(-c5c[nH]nc5C(F)(F)F)cnc34)cc2Cl)CC1)[C@@H]1C[C@@H](O)CN1 [Example 154, (2S,4R)-N-[1-[2-chloro-4-[[3-[3-(trifluoromethyl)-1H-pyrazol-4-yl]imidazo[1,2-a]pyrazin-8-yl]amino]benzoyl]piperidin-4-yl]-4-hydroxypyrrolidine-2-carboxamide]
0.411	NC1CCN(C(=O)c2ccc(Nc3nccn4c(-c5c[nH]nc5C(F)(F)F)cnc34)cc2Cl)CC1 [Example 318, (4-aminopiperidin-1-yl)-[2-chloro-4-[[3-[3-(trifluoromethyl)-1H-pyrazol-4-yl]imidazo[1,2-a]pyrazin-8-yl]amino]phenyl]methanone]
0.63	O=C(NC1CCN(C(=O)[C@@H]2C[C@@H](O)CN2)CC1)c1ccc(Nc2nccn3c(-c4c[nH]nc4C(F)(F)F)cnc23)cc1Cl [Example 381, 2-chloro-N-[1-[(2S,4R)-4-hydroxypyrrolidine-2-carbonyl]piperidin-4-yl]-4-[[3-[3-(trifluoromethyl)-1H-pyrazol-4-yl]imidazo[1,2-a]pyrazin-8-yl]amino]benzamide]
0.905	NCCCC(=O)NCCNC(=O)c1ccc(Nc2nccn3c(-c4c[nH]nc4C(F)(F)F)cnc23)cc1Cl [Example 300, N-[2-(4-aminobutanoylamino)ethyl]-2-chloro-4-[[3-[3-(trifluoromethyl)-1H-pyrazol-4-yl]imidazo[1,2-a]pyrazin-8-yl]amino]benzamide]
0.409	CCc1cc(Nc2nccn3c(-c4c[nH]nc4C(F)(F)F)cnc23)ccc1C(=O)NCCOCC(C)(C)N [Example 176, N-[2-(2-amino-2-methylpropoxy)ethyl]-2-ethyl-4-[[3-[3-(trifluoromethyl)-1H-pyrazol-4-yl]imidazo[1,2-a]pyrazin-8-yl]amino]benzamide hydrochloride]
1.01	CCc1cc(Nc2nccn3c(-c4c[nH]nc4C(F)(F)F)cnc23)ccc1C(=O)NCC1CC1N (stereo not shown) [Example 776, N-((2-aminocyclopropyl)methyl)-2-ethyl-4-((3-(3-(trifluoromethyl)-1H-pyrazol-4-yl)imidazo [1,2-a]pyrazin-8-yl)amino) benzamide formate]
0.309	O=C(NC1CN(C(=O)[C@@H]2C[C@@H](O)CN2)C1)c1ccc(Nc2nccn3c(-c4c[nH]nc4C(F)(F)F)cnc23)cc1Cl [Example 371, 2-chloro-N-[1-[(2S,4R)-4-hydroxypyrrolidine-2-carbonyl]azetidin-3-yl]-4-[[3-[3-(trifluoromethyl)-1H-pyrazol-4-yl]imidazo[1,2-a]pyrazin-8-yl]amino]benzamide]
0.177	CNC(=O)c1ccc(Nc2nccn3c(-c4cn(Cc5cc[nH]n5)nc4C(F)(F)F)cnc23)cc1Cl [Example 284, 2-chloro-N-methyl-4-[[3-[1-(1H-pyrazol-3-ylmethyl)-3-(trifluoromethyl)pyrazol-4-yl]imidazo[1,2-a]pyrazin-8-yl]amino]benzamide]
0.246	CCc1cc(Nc2nccn3c(-c4cn(CC(F)F)nc4C(F)(F)F)cnc23)ccc1C(=O)NCC(=O)N[C@@H]1CCNC1 [Example 648, 4-[[3-[1-(2,2-difluoroethyl)-3-(trifluoromethyl)pyrazol-4-yl]imidazo[1,2-a]pyrazin-8-yl]amino]-2-ethyl-N-[2-oxo-2-[[(3R)-pyrrolidin-3-yl]amino]ethyl] benzamide formate]

Same assay, conditions: strain ATCC 17961, OD600 growth over 16 h, read-out: A. baumannii ATCC 17961 IC90

Compound	IC90 [µM]
C[C@@H](O)CNC(=O)c1ccc(Nc2nccn3c(-c4cn(CC#N)nc4C(F)(F)F)cnc23)cc1Cl [Example 237, 2-chloro-4-[[3-[1-(cyanomethyl)-3-(trifluoromethyl)pyrazol-4-yl]imidazo[1,2-a]pyrazin-8-yl]amino]-N-[(2R)-2-hydroxypropyl] benzamide]	0.196
CCc1cc(Nc2nccn3c(-c4c[nH]nc4C(F)(F)F)cnc23)ccc1C(=O)NCCNC(=O)[C@H]1C[C@@H](N)C1 [Example 804, N-(2-((1s,3s)-3-aminocyclobutane-1-carboxamido)ethyl)-2-ethyl-4-((3-(3-(trifluoromethyl)-1H-pyrazol-4-yl)imidazo[1,2-a]pyrazin-8-yl)amino)benzamide formate]	0.511

From US20230203043A1, “NOVEL IMIDAZOPYRAZINE DERIVATIVES” (Hoffmann-La Roche Inc., priority 2020, published 2023)
